From patent publication US20080280837A1, “Biologically Active Compounds with Anti-Angiogenic Properties” (priority 2004, published 2008)

Target: T1, Human SST5 somatostatin receptor (SSTR5) (Homo sapiens, UniProt P35346)
T1 construct: expressed in transfected cells; host or cells: HEK-293 EBNA
Test: Filter plate assay for SST5 receptor, displacement of [125I]SST-14
Type: binding
Procedure: Receptor membrane preparations containing the desired cloned receptor (for example cloned human somatostatin receptor subtype 5, SSTR5) and radio-labeled ligand (for example 3-[^125I]iodotyrosyl^11 Somatostatin-14)) were diluted at the concentration required for testing and according to the specific parameters associated with the selected receptor-ligand combination, including receptor Bmax, ligand Kd and any other parameters necessary to optimize the experimental conditions. When tested for competition activity to the reference ligand, “compound 1” was mixed with membrane suspension and the radiolabeled reference ligand (with or without an excess of cold ligand to the receptor for determination of non-specific binding) and incubated at the temperature required by internal standard operating procedures. Following incubation, the binding reaction was stopped by the addition of ice-cold washing buffer and filtered on appropriate filters, which are then counted. Data analysis and curve-fitting was performed with XLfit (IDBS).
10 mM solutions of test compounds in 100% DMSO were prepared. ˜160 μl was used for each dilution (20 μl/well in triplicate).
A 1.25 mM assay stock was prepared by making a 1:8 dilution of the 10 mM solution. (To 30 μL of the 10 mM solution was added 210 μL milli-Q H2O. A 1:5 dilution series in milli-Q H2O was then prepared.
Assays were performed in triplicate at each concentration within the 1:5 dilution series: 250 μM, 50 μM, 10 μM, […], 0.4 μM, 0.08 μM, 0.016 μM, 0.0032 μM, etc. (for SST4 assay) and 125 μM, 10 μM, 2 μM, 1 μM, 0.5 μM, etc (for SST5 assay).
Human SST5 somatostatin receptor was transfected into HEK-293 EBNA cells. Membranes were suspended in assay buffer (50 mM Tris-HCl, 1 mM EGTA, 5 mM MgCl2, 10% sucrose, pH 7.5).
After thawing the frozen receptor preparation rapidly, receptors were diluted with binding buffer, homogenized, and kept on ice. • 1. Use Multiscreen glass fiber filter plates (Millipore, Cat No MAFCNOB10) precoated with o.5% PEI for ˜2 hr at 4° C. Before use add 200 μl/well assay buffer and filter using Multiscreen Separation System. • 2. Incubate 5.5 μg of membranes (40 μl of a 1:40 dilution), buffer and [^125I]SST-14 (4 nM, ˜80 000 cpm, 2000 Ci/mmol) in a total volume of 200 μl for 60 min at 25° C. […] Prepare serial dilutions (1:5) of compounds, as described above and instead of adding SST-14 in well, add 20 μl of compounds (Table 1). • 3. Filter using Multiscreen Separation System with 5×0.2 ml ice-cold Assay buffer. • 4. Remove the plastic underdrain and dry plate in oven for 1 hr at 40° C. • 5. Seal tape to the bottom of the plate. • 6. Add 50 μl/well scintillant (Supermix, Wallac, Cat No 1200-439). • 7. Seal and count in the BJET, program 2.
In primary screening experiments compounds were tested in duplicate for a particular concentration.

T1 sequence (P35346 whole entry): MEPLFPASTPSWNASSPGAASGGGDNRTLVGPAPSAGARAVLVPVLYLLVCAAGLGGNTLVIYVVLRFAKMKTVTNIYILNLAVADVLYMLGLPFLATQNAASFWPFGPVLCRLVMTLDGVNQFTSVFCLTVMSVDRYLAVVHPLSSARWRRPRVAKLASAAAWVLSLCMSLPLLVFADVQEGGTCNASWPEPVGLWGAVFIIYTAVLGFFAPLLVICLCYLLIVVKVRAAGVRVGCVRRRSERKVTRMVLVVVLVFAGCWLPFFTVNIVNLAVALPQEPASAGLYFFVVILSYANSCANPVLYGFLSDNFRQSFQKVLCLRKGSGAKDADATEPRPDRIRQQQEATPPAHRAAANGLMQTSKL

Structure (SMILES)	SSTR5 Inhib 0.5 uM % (inhibition of binding of SST-14 to SSTR5) [%]	SSTR5 Inhib 10 uM % (inhibition of binding of SST-14 to SSTR5) [%]
COC[C@H]1OC(OCc2ccc(Cl)cc2)[C@H](NC(=O)CCCN)[C@@H](OCc2ccc3ccccc3c2)[C@@H]1O (stereo partly drawn) [Compound 48]	66	92
COC1C(O)C(COCc2ccc3ccccc3c2)OC(OCc2ccc(Cl)cc2)C1NC(=O)C1CCCN1 (stereo not drawn) [Compound 51]	76	92
COC[C@H]1OC(OCc2ccc3ccccc3c2)[C@H](NC(=O)CCNC(=N)N)[C@@H](OCc2ccc(-c3ccccc3)cc2)[C@@H]1O (stereo partly drawn) [Compound 52]	69	92
COC[C@H]1OC(OCc2ccccc2)[C@H](NC(=O)CCNC(=N)N)[C@H](OCc2ccc3ccccc3c2)[C@@H]1O (stereo partly drawn) [Compound 53]	58	91
COC[C@H]1OC(OCc2ccccc2)[C@H](NC(=O)CCN)[C@H](OCc2ccc(-c3ccccc3)cc2)[C@@H]1O (stereo partly drawn) [Compound 54]	60	91
COC[C@H]1OC(OCc2ccc(Cl)cc2)[C@H](NC(=O)CCCNC(=N)N)[C@@H](OCc2ccc(Cl)cc2)[C@@H]1O (stereo partly drawn) [Compound 56]	57	91
COC[C@H]1OC(OCc2ccc(-c3ccccc3)cc2)[C@H](NC(=O)CCCNC(=N)N)[C@@H](OCc2ccc(-c3ccccc3)cc2)[C@@H]1O (stereo partly drawn) [Compound 58]	65	91
COC[C@H]1OC(OCc2ccccc2)[C@H](NC(=O)CCCN)[C@H](OCc2ccc(Cl)cc2)[C@@H]1O (stereo partly drawn) [Compound 59]	66	90
COC[C@H]1OC(OCc2ccc3ccccc3c2)[C@H](NC(=O)CCCNC(=N)N)[C@H](OCc2ccc3ccccc3c2)[C@@H]1O (stereo partly drawn) [Compound 60]	57	90
COC[C@H]1OC(OCc2ccc3ccccc3c2)[C@H](NC(=O)CCCN)[C@@H](OCc2ccc(Cl)cc2)[C@@H]1O (stereo partly drawn) [Compound 61]	61	90
COC[C@H]1OC(OCCc2ccccc2)[C@H](NC(=O)CCCNC(=N)N)[C@H](OCc2ccc(Cl)cc2)[C@@H]1O (stereo partly drawn) [Compound 62]	61	90
COC[C@H]1OC(OCc2ccc(-c3ccccc3)cc2)[C@H](NC(=O)CCCN)[C@@H](OCc2ccc(Cl)cc2)[C@@H]1O (stereo partly drawn) [Compound 63]	50	90
COC[C@H]1OC(OCc2ccc3ccccc3c2)[C@H](NC(=O)CCCNC(=N)N)[C@H](OCc2ccccc2)[C@@H]1O (stereo partly drawn) [Compound 64]	57	90
COC[C@H]1OC(OCCc2ccccc2)[C@H](NC(=O)CCCN)[C@@H](OCc2ccc(-c3ccccc3)cc2)[C@@H]1O (stereo partly drawn) [Compound 65]	61	90
CO[C@@H]1[C@H](O)[C@@H](COCc2ccc3ccccc3c2)OC(OCc2ccc(Cl)cc2)[C@@H]1NC(=O)C1CCCN(C(=N)N)C1 (stereo partly drawn) [Compound 69]	67	89
COC[C@H]1OC(OCCc2ccccc2)[C@H](NC(=O)CCCN)[C@@H](OCc2ccc3ccccc3c2)[C@@H]1O (stereo partly drawn) [Compound 73]	56	89
COC[C@H]1OC(OCc2ccc(-c3ccccc3)cc2)[C@H](NC(=O)CCCN)[C@@H](OCc2ccc(Cl)cc2)[C@@H]1O (stereo partly drawn) [Compound 74]	64	89
COC[C@H]1OC(OCc2ccc3ccccc3c2)[C@H](NC(=O)CCCNC(=N)N)[C@@H](OCc2ccc3ccccc3c2)[C@@H]1O (stereo partly drawn) [Compound 75]	61	89
COC[C@H]1OC(OCc2ccccc2)[C@H](NC(=O)CCCN)[C@H](OCc2ccc3ccccc3c2)[C@@H]1O (stereo partly drawn) [Compound 76]	51	88
COC[C@H]1OC(OCc2ccc(-c3ccccc3)cc2)[C@H](NC(=O)CCCNC(=N)N)[C@@H](OCc2ccc(-c3ccccc3)cc2)[C@@H]1O (stereo partly drawn) [Compound 77]	50	88

Continued, values first:

SSTR5 Inhib 0.5 uM % (inhibition of binding of SST-14 to SSTR5) [%]	SSTR5 Inhib 10 uM % (inhibition of binding of SST-14 to SSTR5) [%]	Structure (SMILES)
60	92	CSC1O[C@H](COCc2ccc(Cl)cc2)[C@@H](O)[C@@H](OCc2ccc3ccccc3c2)[C@H]1NC(=O)CCCNC(=N)N (stereo partly drawn) [Compound 49]
74	92	COC[C@H]1OC(OCc2ccc(Cl)cc2)[C@H](NC(=O)CCNC(=N)N)[C@H](OCc2ccc3ccccc3c2)[C@@H]1O (stereo partly drawn) [Compound 50]
71	91	COC[C@H]1OC(OCc2ccc(-c3ccccc3)cc2)[C@H](NC(=O)CCCNC(=N)N)[C@@H](OCc2ccc(-c3ccccc3)cc2)[C@@H]1O (stereo partly drawn) [Compound 55]
64	91	COC[C@H]1OC(OCc2ccc3ccccc3c2)[C@H](NC(=O)CCNC(=N)N)[C@H](OCc2ccc3ccccc3c2)[C@@H]1O (stereo partly drawn) [Compound 57]
61	89	CSC1O[C@H](COCc2ccc(-c3ccccc3)cc2)[C@@H](O)[C@@H](OCc2ccc3ccccc3c2)[C@H]1NC(=O)CCN (stereo partly drawn) [Compound 66]
48	89	CO[C@H]1[C@H](O)[C@@H](COCc2ccc(-c3ccccc3)cc2)OC(OCc2ccc(Cl)cc2)[C@@H]1NC(=O)CCCNC(=N)N (stereo partly drawn) [Compound 67]
46	89	COC[C@H]1OC(OCc2ccc3ccccc3c2)[C@H](NC(=O)CCCN)[C@@H](OCc2ccccc2)[C@@H]1O (stereo partly drawn) [Compound 68]
18	89	CO[C@H]1[C@H](O)[C@@H](COCc2ccc(-c3ccccc3)cc2)OC(OCc2ccc(-c3ccccc3)cc2)[C@@H]1NC(=O)CNC(=N)N (stereo partly drawn) [Compound 70]
49	89	COC[C@H]1OC(OCc2ccc(Cl)cc2)[C@H](NC(=O)CCNC(=N)N)[C@H](OCc2ccc(Cl)cc2)[C@@H]1O (stereo partly drawn) [Compound 71]
51	89	CSC1O[C@H](COCc2ccccc2)[C@@H](O)[C@@H](OCc2ccc3ccccc3c2)[C@H]1NC(=O)CNC(=N)N (stereo partly drawn) [Compound 72]
